Assay [1] concerns CDKN1B (cyclin-dependent kinase inhibitor 1B). Briefly: CDKN1B upregulation and cell cycle arrest with minimal NC5 variants in HEK293T cells. The format is cell-based, human. To be noted: cells with minimal NC5 receptor variant and sgCDKN1B. From the text:
Minimal NC5 receptor variants were used to elicit Delta-dependent arrest of the cell cycle (FIG. 39A). CDKN1B (cyclin-dependent kinase inhibitor 1B) was targeted in HEK293T cells with sgRNAs (sgCDKN1B). CDKN1B overexpression leads to cellular arrest at the G0/G1 phase (FIG. 39B). […] The Delta-induced CDKN1B upregulation and G0/G1 arrest in cells was abrogated with DAPT (FIGS. 39E and 39F).

For a further assay, the system named is GFP reporter. The experiment in a line: GFP reporter activation by chimeric GPCR-dCas9-VPR receptors in HEK293T cells. The format is cell-based, human. The settings on record: sgRNA and β2-arrestin-protease; presence of ligand (LPA, SDF1, or CNO) compared to absence of ligand. From the text:
The released dCas9-VPR was then targeted by sgRNA to a target polynucleotide to alter expression levels of a GFP reporter.

The subject of a further assay is luciferase reporter gene. The experiment in a line: Luciferase reporter activation by chimeric CXCR4-dCas9-VPR in HEK293 cells. The format is cell-based, human. From the text: FIGS. 23A and 23B show the results from three independent experiments testing the activity of a chimeric CXCR4-dCas9-VPR-mCherry 2301 in host cells, e.g., HEK293 cells. After ligand binding 2311, the β2-arrestin-protease was recruited to the activated receptor and the protease released the dCas9-VPR-mCherry from the receptor 2321. The expression construct for the β2-arrestin-protease is shown as 2351. The reporter construct is shown in 2341. In each experiment, the dCas9-VPR was paired with a single guide RNA (sgRNA) that specifically activates luciferase expression, which in turn generates luminescence. In this experiment a sgRNA-BFP was used 2331. In some experiments, a scFv-mCherry-VPR 2305 and/or a dCas9-10×GCN4 2307 was used as a control.
The CXCR4-dCas9-VPR-mCherry 2361 was conditionally expressed from a doxycycline-inducible promoter (TRE3G), such that only addition of doxycycline (Dox) and the presence of a co-activator can trigger expression of the recombinant receptor. Without Dox, there is no luminescence (FIG. 23B). […] Upon Dox addition, chimeric CXCR4-dCas9 was expressed, and luminescence was detected. […] Chimeric GPCR-dCas9 proteins described herein can be expressed in immune cells such as T cells and macrophages. Also, chemotactic experiments can be performed to determine if CXCL12 can serves as a chemoattractant to T cells expressing the chimeric GPCR-dCas9 proteins. […]
(In a reporter assay the amount or activity of a reporter protein is the signal.)

For assay [2], the system named is UAS promoter controlling H2B-citrine reporter gene. The experiment in a line: Delta-dependent H2B-citrine reporter activation in CHO UAS-H2B cells with sgUAS. Type of assay: cell-based, Chinese hamster. As to the method:
A fusion construct, NC1, was created by replacing the NICD from human NOTCH1 with the Streptococcus pyogenes dCas9 fused to a tripartite activation domain (VP64, p65, and Rta) (FIG. 31B) with three copies of a nuclear localization signal (NLS) sequence. The construct was fluorescently tagged with mCherry to determine its subcellular distribution. Next, it was determined how the NC1 fusion construct responded to extracellular Delta ligands when transfected in mammalian cells. A Chinese hamster ovary (CHO) reporter cell line was used that was previously developed to dissect Notch-Delta signaling (Sprinzak, D. et al. Cis-interactions between Notch and Delta generate mutually exclusive signalling states. Nature 465, 86-90, doi:10.1038/nature08959 (2010)). The CHO cell line contained an inducible UAS (upstream activating sequence) promoter controlling the citrine (YFP)-tagged reporter gene, histone 2B (H2B). sgRNAs (sgUAS) were stably expressed via lentiviral transduction that allow cleaved dCas9 to bind to the UAS promoter (see Table 6). […] By imaging the fluorescence of nucleus-bound H2B-citrine, it was determined whether NC1 induced H2B expression upon exposure to surface-adsorbed Delta (FIG. 31C). […]
(§1) Cells were trypsinized and analyzed for reporter fluorescence or protein immunofluorescence using a Scanford FACScan analyzer (Becton Dickinson) and standard protocols. […]

The next assay has as its system tet-inducible EGFP gene. The experiment in a line: EGFP activation in HEK293T tet-inducible EGFP sgTET reporter cells on immobilized Delta. Type of assay: cell-based, human. To be noted: cells cultured without Delta, and DAPT-treated cells with the highest Delta concentration, 3 days. As for the experimental part:
Activation of NC5 receptors by immobilized Delta ligand leads to cleavage and nuclear translocation of dCas9-VPR. dCas9-VPR complexed with a sequence-specific sgRNA (e.g., sgTET) allows for binding of the complex to the (e.g., TET) promoter and activation of EGFP gene (FIG. 31G). […] Cells transfected with dCas9-VPR or NC5 receptor (with or without the γ-secretase inhibitor, DAPT) were cultured with or without immbolized Delta for 3 days. Percentage of activated cells (ON %) is also indicated. Cells are considered ON above the basal intensity of all cells with no construct. […] Mean fold change compared to DAPT-treated condition is indicated.
Surface adsorption of Delta: Experiments described in this example were performed with cells plated on 24- or 48-well plates (Corning) at 1.5×10^4 cells/mL. […] For experiments with CHO cells, 5 μg/mL of hamster fibronectin (Innovative Research) was also adsorbed together with Delta.
Cells were trypsinized and analyzed for reporter fluorescence or protein immunofluorescence using a Scanford FACScan analyzer (Becton Dickinson) and standard protocols. For intracellular proteins, cells were trypsinized and fixed in 4% paraformaldehyde solution for 15 minutes, were incubated for 2 h at room temperature with the appropriate primary antibody in a solution of 0.3% Triton-X 100 (Sigma) with 2% normal donkey serum (Thermo Fisher) in PBS. […]

Assay [3] concerns cyclin-dependent kinase inhibitor 1B (CDKN1B). Briefly: Delta-dependent CDKN1B upregulation and G0/G1 arrest in HEK293 sgCDKN1B cells. The format is cell-based, human.
Description: Combining the ability to route native extracellular signals with the discriminatory power of sgRNA-mediated Cas9 binding to virtually any genomic target opens up an exponential amount of signaling pathways and functions (FIG. 32A). The Notch chimeric receptors disclosed herein were used to elicit a novel Delta-dependent arrest of the cell-division cycle. HEK293 cells were stably transduced with lentivirus-packaged sgRNAs that specifically target cyclin-dependent kinase inhibitor 1B (CDKN1B), an endogenous regulator of the cell cycle. […] NC5 was transfected into HEK293 cells stably expressing sgRNAs for CDKN1B (sgCDKN1B) and the cells were subsequently introduced onto bare or Delta-containing surfaces. […] 38% of Delta-exposed, NC5-transfected, and sgCDKN1B^+ cells were determined to be sequestered at the G0/G1 phase, and only 2-16% of cells in all other conditions tested. […]
as §1

Assay [4] has as its system 12xCSL promoter H2B-citrine reporter. Briefly: H2B-citrine reporter driven by 12xCSL promoter in CHO cells with sasgCSL. The settings on record: with S. aureus-specific sgRNA (sasgCSL). The format is cell-based, Chinese hamster. From the text:
Chimera modularity was further explored by testing another Cas9 ortholog in a similar reporter assay (H2B-citrine driven by a 12×CSL promoter that also allows wild-type NICD to bind). A Staphylococcus aureus dCas9 was introduced in the NC5 design. This resulting S. au.
All cell lines used in FIGS. 31A-31F were based on the cell line T-Rex-CHO-K1 (Invitrogen). Stable cell clones of UAS-H2B-citrine and 12×CSL-H2B-citrine were obtained. Additional cell lines were generated from lentiviral transduction (of all sgRNAs and SV40-EGFP) or plasmid transfection using TransIT-LT1 reagent (Minis Bio) per manufacturer's instructions, followed by appropriate antibiotic selection and maintenance. Stably transfected clones expressing NC5 and sgUAS in the UAS-H2B-citrine line were isolated by FACS, after 2 weeks of puromycin and geneticin selection. All CHO cell lines were grown in Alpha MEM with Earle's Salts (Irvine Scientific) supplemented with 10% Tet System Approved FBS (Clontech), 100 U/mL of penicillin and streptomycin, 2 mM L-glutamine (Gibco) and 10 μg/mL blasticidin (VWR International) at 37° C. with 5% CO2 in a humidified incubator.
Surface adsorption of Delta: Experiments described in this example were performed with cells plated on 24- or 48-well plates (Corning) at 1.5×10^4 cells/mL. […]

The test system of another assay is pTET-EGFP reporter. Briefly: EGFP reporter activation by dCas9-VPR iNLS variants in HEK293 pTET-EGFP sgTET cells. The format is cell-based, human. From the text: Cas9 found at amino acid residues 647-670. […] Representative histograms of EGFP activation in the presence or absence (bottom) of constructs and quantification of EGFP activation (normalized to untransfected cells) is shown (SEQ ID NO: 31, 32). […] FIGS. 35C and 35D show visually by microscopy and quantitatively that adding a synthetic NLS to the N-terminus of iNLS-mutated dCas9-VPR partially restores EGFP activation.
Cas9. This iNLS sequence ([…] (SEQ ID NO: 31)) of amino-acid residues was mapped to a helix-linker-helix motif in the crystal structure of S. py. Cas9. […] Mutating 6 arginine or lysine residues of the iNLS to alanines ([…] (SEQ ID NO: 32)) in a dCas9-VPR-mCherry construct impaired EGFP activation (from 18-fold down to 4-fold) in HEK293 reporter cells. […] Disrupting this iNLS motif by mutating arginine and lysine residues to alanines […] […] Representative histograms of EGFP reporter are shown to the right; percentage of cells considered ‘ON’ had reporter intensities above untransfected ‘OFF’ cells.

Bounds are passed on as bounds.

From patent US10457961B2, “Chimeric proteins and methods of regulating gene expression” (The Board of Trustees of the Leland Stanford Junior …, priority 2016, dated 2019) come the findings set out here.

As to `C[C@H](NC(=O)Cc1cc(F)cc(F)c1)C(=O)N[C@H](C(=O)OC(C)(C)C)c1ccccc1` [DAPT], the “Delta-induced CDKN1B upregulation and G0/G1 arrest” value in assay [1] is given as “abrogated”.
“CXCR4-dCas9-VPR: CXCR4-V2 tail-TEV cleavage site-dCas9-VPR-NLS-mCherry, SEQ ID NO:3”: in the assay with GFP reporter, the “levels of GFP reporter protein” value is on record as “increased levels of GFP reporter protein”. In addition, in the assay on luciferase reporter gene (HEK293 cells, sgRNA activating luciferase, receptor induced with doxycycline), the “luminescence (luciferase reporter)” value is reported as “sensitive to increasing concentrations of the CXCR4 ligand, CXCL12”. Besides, the “transcription of luciferase gene” value with luciferase reporter gene (sgTET, TetO promoter, β2-arrestin-protease) was “regulated by CXCL2 binding”.
On to “NC5: hNECD-dCas9-VPR-mCherry with LMAN1 MMS sequence at the C-terminus, no synthetic NLS”, for which the “H2B activation in response to Delta” value in assay [2] (CHO reporter cells with NC5 and sgUAS stably integrated, single clone) is “Three-fold”. In assay [2] (transfected CHO UAS-H2B-citrine sgUAS cells, bare or Delta-coated surface, 4 days), the “H2B expression with or without Delta” value is “exhibited Delta-dependent activation of H2B”. In addition, the EGFP activation entry in the assay on tet-inducible EGFP gene is given as “did not activate EGFP”. Moreover, the “upregulation of CDKN1B” value in assay [3] (4 days on Delta, compared to bare-surface, untransfected controls) was above 2 fold. For the same molecule, the “cells sequestered at the G0/G1 phase” value in assay [3] (Delta-exposed, NC5-transfected, sgCDKN1B+ cells) is recorded as 38%.
Consider “S. au. NC5 dCas9 variant: NC5 design with Staphylococcus aureus dCas9”, for which the “Delta-dependent activation levels of H2B-citrine” value in assay [4] is listed as “exhibited Delta-dependent activation levels similar to wild-type human NOTCH1”.
Turning to “mutated-iNLS variant: dCas9-VPR-mCherry with 6 arginine or lysine residues of the iNLS mutated to alanines (SEQ ID NO: 32) (VMAQLKAAAYTGWGRLSAALINGI)”, in the assay on pTET-EGFP reporter (HEK293T cells, confocal microscopy), the “nuclear localization and EGFP reporter activation” value is “severely impaired nuclear localization and EGFP reporter activation”. Besides, the “percentage of cells that activate EGFP” value in the assay with pTET-EGFP reporter (HEK293 reporter cells) is given as around 16%. The EGFP activation was 4 fold in the assay on pTET-EGFP reporter (HEK293 reporter cells, normalized to untransfected cells) and “partially restored EGFP activation” with pTET-EGFP reporter (synthetic NLS added back to the N-terminus).
